The values below come from EP0115929A1, “Novel organic platinum complex and process for the preparation thereof” (priority 1983, dated 1984).

Some results are limits rather than exact numbers.

One data set has as its system Leukemia L-1210. Briefly: Effect on life span of mice implanted with Leukemia L-1210 (Method B). In kind it is in vivo. To be noted: for ILS30: denominator in brackets of the therapeutic index cell; for ILS30 / OD: dose column in mg/kg/day; for 60-day survivors: survivors/mice in group; for OD: numerator in brackets of the therapeutic index cell; for increase in the life span of mice: dose of 50 mg/kg/day. On the procedure: […] test compound was begun 24 hours after the inoculation of the leukemic cells and performed once a day for 5 days. The survival days of the treated mice were observed.

For data set [1], the system named is Ehrlich ascites carcinoma. Briefly: Preventive effect against the growth of Ehrlich ascites carcinoma (Method A). The format is in vivo, mice. To be noted: for MTD: footnote *3 in image, dose column in mg/kg/day; for MED: footnote *4 in image, b22: minimum effective dose per day which causes 100 % inhibition, in mg/kg/day; for M.E.D.: minimum effective dose per day which causes 100 % inhibition of Ehrlich ascites carcinoma. From the text: It may be useful to prolong the survival time of warm-blood .animals, including human,.afflicted with tumors and/or minimize the growth of tumors in said animals. […] The compound of the present invention is also useful for the treatment of various other tumors such as prostate tumor, orchis tumor, ovary tumor, malignant lymphoma, leukemia, breast cancer and the like.

Where [2] appears, read: dose 1.56 mg/kg/day, (C - T)/C x 100.
Setting [3] is: dose 3.12 mg/kg/day, (C - T)/C x 100.
[4] abbreviates: dose 6.25 mg/kg/day, (C - T)/C x 100.
The mark [5] stands for this setting: dose 25 mg/kg/day, (C - T)/C x 100.
The mark [6] stands for this setting: dose 100 mg/kg/day, (C - T)/C x 100.
Setting [7] is: dose 200 mg/kg/day, cell prints toxicity instead of inhibition (footnote *6 in image).

“cis-Dioxamato(2-aminomethylpyridine) platinum (II) [Compound 3]” had an ILS30 in the data set with Leukemia L-1210 of 1.65. Also, the “ILS (%)” value in the data set with Leukemia L-1210 (dose 1.56 mg/kg/day) is recorded as 28.6%; with Leukemia L-1210 (dose 3.12 mg/kg/day), 47.1%; in the data set on Leukemia L-1210 (dose 6.25 mg/kg/day) it was 85.7%; with Leukemia L-1210 (dose 12.5 mg/kg/day) it was 90.0%; in the data set on Leukemia L-1210 (dose 25 mg/kg/day), 100.0%; in the data set with Leukemia L-1210 (dose 50 mg/kg/day) it was more than 607.1%. For the same substance, in the data set with Leukemia L-1210 (dose 100 mg/kg/day), the “ILS (%)” value is on record as more than 757.1%. The 60-day survivors in the data set with Leukemia L-1210 (dose 1.56 mg/kg/day) was 0/4; in the data set on Leukemia L-1210 (dose 3.12 mg/kg/day) it was 0/4; with Leukemia L-1210 (dose 6.25 mg/kg/day) it was 0/4; with Leukemia L-1210 (dose 12.5 mg/kg/day) it was 0/4; in the data set with Leukemia L-1210 (dose 25 mg/kg/day), 0/4; in the data set on Leukemia L-1210 (dose 50 mg/kg/day), 3/4. Besides, in the data set on Leukemia L-1210 (dose 100 mg/kg/day), the 60-day survivors was 4/4. Besides, in the data set on Leukemia L-1210, the OD is 100.

For “cis-Malonato(2-aminomethylpyridine) platinum (II) [Compound 2]”, the “Inhibition rate (%)” value in data set [1] (setting [2]) was 12.9%; in data set [1] (setting [3]), 100%; in data set [1] (setting [4]), 100%; in data set [1] (setting [5]), 100%; in data set [1] (setting [6]), 100%; in data set [1] (setting [7]) it was “Toxic(5/5)^*6”. In data set [1], this substance displayed an MTD of 100. This substance came in with an MED in data set [1] of 3.12. This substance showed a M.E.D. in data set [1] of 3.12 mg/kg/day. The substance further showed an ILS30 with Leukemia L-1210 of 1.8. Also, the “ILS (%)” value in the data set with Leukemia L-1210 (dose 1.56 mg/kg/day) is reported as 25.7%; in the data set with Leukemia L-1210 (dose 3.12 mg/kg/day), 47.1%; with Leukemia L-1210 (dose 6.25 mg/kg/day), 61.4%; with Leukemia L-1210 (dose 12.5 mg/kg/day), 92.9%; with Leukemia L-1210 (dose 25 mg/kg/day), 185.7%; with Leukemia L-1210 (dose 50 mg/kg/day), more than 757.1%. Further, the “ILS (%)” value in the data set with Leukemia L-1210 (dose 100 mg/kg/day) was more than 757.1%. Besides, the 60-day survivors in the data set on Leukemia L-1210 (dose 1.56 mg/kg/day) is recorded as 0/4; with Leukemia L-1210 (dose 3.12 mg/kg/day), 0/4; in the data set with Leukemia L-1210 (dose 6.25 mg/kg/day), 0/4; in the data set with Leukemia L-1210 (dose 12.5 mg/kg/day) it was 0/4; in the data set on Leukemia L-1210 (dose 25 mg/kg/day), 0/4; in the data set with Leukemia L-1210 (dose 50 mg/kg/day), 4/4. The 60-day survivors in the data set with Leukemia L-1210 (dose 100 mg/kg/day) was 4/4. Further, the “increase in the life span of mice” value in the data set on Leukemia L-1210 is “more than 745%”. Also, the OD in the data set on Leukemia L-1210 was determined as 100.

For the substance “cis-Oxalato(2-aminomethylpyridine) platinum (II) [Compound 1]”, the “Inhibition rate (%)” value in data set [1] (setting [2]) is 21.9%; in data set [1] (setting [3]), 100%; in data set [1] (setting [4]), 100%; in data set [1] (setting [5]), 100%; in data set [1] (setting [6]), 100%; in data set [1] (setting [7]), “Toxic(5/5)^*6”. In data set [1], this substance displayed an MTD of 100. Also, the MED in data set [1] stood at 3.12. In addition, the M.E.D. in data set [1] is reported as 3.12 mg/kg/day. The ILS30 in the data set with Leukemia L-1210 stood at 1.3. For the same substance, the “ILS (%)” value with Leukemia L-1210 (dose 0.78 mg/kg/day) is reported as 19.7%; in the data set with Leukemia L-1210 (dose 1.56 mg/kg/day), 33.8%; with Leukemia L-1210 (dose 3.12 mg/kg/day) it was 52.1%; in the data set with Leukemia L-1210 (dose 6.25 mg/kg/day), 80.3%; in the data set on Leukemia L-1210 (dose 12.5 mg/kg/day), more than 269.0%; in the data set with Leukemia L-1210 (dose 25 mg/kg/day), more than 463.4%. Also, the “ILS (%)” value in the data set with Leukemia L-1210 (dose 50 mg/kg/day) and with Leukemia L-1210 (dose 100 mg/kg/day) was more than 745.1% throughout. For the same substance, the 60-day survivors in the data set with Leukemia L-1210 (dose 0.78 mg/kg/day) is listed as 0/4; in the data set on Leukemia L-1210 (dose 1.56 mg/kg/day), 0/4; in the data set with Leukemia L-1210 (dose 3.12 mg/kg/day), 0/4; with Leukemia L-1210 (dose 6.25 mg/kg/day), 0/4; with Leukemia L-1210 (dose 12.5 mg/kg/day), 1/4; in the data set with Leukemia L-1210 (dose 25 mg/kg/day), 2/4. The 60-day survivors with Leukemia L-1210 (dose 50 mg/kg/day) and with Leukemia L-1210 (dose 100 mg/kg/day) was 4/4 each time. Moreover, in the data set with Leukemia L-1210, the “increase in the life span of mice” value is on record as “more than 745%”. The substance also had an OD with Leukemia L-1210 of 100.
